In this test the target is T1, CIC-1 channels (Rattus norvegicus, UniProt P35524).
T1 construct: Gm was measured in individual fibres of whole rat soleus muscles; from tissue; host or cells: soleus muscle of adult (12-14 week old) Wistar rats
T1 sequence (P35524 1-994): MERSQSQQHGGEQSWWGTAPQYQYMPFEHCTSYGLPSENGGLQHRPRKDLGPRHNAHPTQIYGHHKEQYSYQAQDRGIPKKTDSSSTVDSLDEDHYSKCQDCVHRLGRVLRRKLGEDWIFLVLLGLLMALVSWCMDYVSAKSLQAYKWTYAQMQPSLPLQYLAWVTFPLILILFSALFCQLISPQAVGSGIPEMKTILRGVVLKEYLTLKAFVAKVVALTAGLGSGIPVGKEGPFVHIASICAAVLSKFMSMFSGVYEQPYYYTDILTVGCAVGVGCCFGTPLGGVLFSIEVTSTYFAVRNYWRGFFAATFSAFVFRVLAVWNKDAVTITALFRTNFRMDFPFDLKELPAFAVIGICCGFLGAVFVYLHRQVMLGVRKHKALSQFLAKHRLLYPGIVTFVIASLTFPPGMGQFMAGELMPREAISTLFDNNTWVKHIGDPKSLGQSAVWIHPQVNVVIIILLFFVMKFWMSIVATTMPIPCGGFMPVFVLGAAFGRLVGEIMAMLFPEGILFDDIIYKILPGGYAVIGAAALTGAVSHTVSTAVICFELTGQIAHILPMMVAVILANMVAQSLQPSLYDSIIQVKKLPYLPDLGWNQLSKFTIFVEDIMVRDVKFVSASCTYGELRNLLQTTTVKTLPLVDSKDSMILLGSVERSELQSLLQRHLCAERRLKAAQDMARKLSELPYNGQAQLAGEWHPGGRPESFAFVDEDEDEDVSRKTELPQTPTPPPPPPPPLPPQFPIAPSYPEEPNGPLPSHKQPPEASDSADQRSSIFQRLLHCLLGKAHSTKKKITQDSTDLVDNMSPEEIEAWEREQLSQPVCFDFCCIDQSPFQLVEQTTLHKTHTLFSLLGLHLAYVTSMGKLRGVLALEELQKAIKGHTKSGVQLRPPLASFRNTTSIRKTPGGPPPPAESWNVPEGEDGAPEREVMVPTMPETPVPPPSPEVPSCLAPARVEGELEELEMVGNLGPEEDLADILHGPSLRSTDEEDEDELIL
Nature of the test: Electrophysiological measurement of compound inhibition of CIC-1 in rat muscle (Gm, EC50). Format: cell-based. The note with it: rat soleus muscle fibres, three micro-electrode Gm measurement; read-out: EC50 (inhibition of ClC-1 ion channel, Gm).

On to “(2S)-2-(4-bromophenoxy)(2-^2H)butanoic acid [Compound A-60]”, for which the EC50 – broadly, the midpoint of the concentration-response curve – is 7.5 ± 1 µM.
